Measured values as given in patent US20160318987A1 (MEDIMMUNE LIMITED, priority 2013, published 2016).
Where a SMILES comes first, the peptide text is derived from it. [ ]: non-standard residue; d: D form. αMeF = C[C@](N)(Cc1ccccc1)C(=O)O; Aib = CC(C)(N)C(=O)O

Tests used:
hGIP-R = target: T1, hGIP-R (Homo sapiens, UniProt P48546); assay: cAMP functional assay, cells expressing human GIP receptor (primary assay); format: cell-based; details: n = 2
T1 construct: expressed in transfected cells
T1 sequence (P48546 22-466): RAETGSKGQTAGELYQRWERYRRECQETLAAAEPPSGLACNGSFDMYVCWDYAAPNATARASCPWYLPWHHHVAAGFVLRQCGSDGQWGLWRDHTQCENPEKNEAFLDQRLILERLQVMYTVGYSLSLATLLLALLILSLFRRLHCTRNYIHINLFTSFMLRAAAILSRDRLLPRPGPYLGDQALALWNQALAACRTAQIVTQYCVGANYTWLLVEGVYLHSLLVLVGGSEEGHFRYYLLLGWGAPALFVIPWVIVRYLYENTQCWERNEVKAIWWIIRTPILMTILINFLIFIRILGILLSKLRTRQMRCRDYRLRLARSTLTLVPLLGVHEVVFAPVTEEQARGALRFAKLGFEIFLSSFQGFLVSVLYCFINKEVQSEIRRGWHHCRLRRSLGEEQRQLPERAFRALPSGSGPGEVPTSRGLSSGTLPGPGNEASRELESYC
Experimental: (§1) The biological activities/receptor potencies of the synthetic GLP-1 peptides described herein are suitably tested for biological activity, e.g., stimulation of one or more cellular receptor responses. Stable cell lines expressing human, mouse, rat, or dog GLP-1 receptor (GLP-1R), glucagon receptor (GCGR) or glucose-dependent insulinotropic peptide (gastric inhibitory polypeptide) receptor (GIPR) are generated in HEK293 cells or CHO cells by standard methods.
(§2) cAMP assays were performed using “assay buffer”: Assay Buffer: 0.1% BSA (Sigma #A3059) in HBSS (Sigma #H8264) with 25 mM HEPES, pH 7.4 and containing 0.5 mM IBMX (Sigma #17018).
(§3) Low protein binding 384-well plates (Greiner #781280) are used to perform eleven 1 in 5 serial dilutions of test samples which are made in assay buffer. All sample dilutions are made in duplicate.
(§4) A frozen cryo-vial of cells expressing the receptor of interest is thawed rapidly in a water-bath, transferred to pre-warmed assay buffer and spun at 240× g for 5 minutes. Cells are re-suspended in assay buffer at a batch-dependent optimized concentration (e.g. hGCGR cells at 2×10^5 cells/ml, hGLP-1R and hGIPR cells at 1×10^5 cells /ml).
(§5) From the dilution plate, a 5 μL replica is stamped onto a black shallow-well u-bottom 384-well plate (Corning #3676). To this, 5 μL cell suspension is added and the plates incubated at room temperature for 30 minutes.
(§6) cAMP levels are measured using a commercially available cAMP dynamic 2 HTRF kit (Cisbio, Cat #62AM4PEJ), following the two step protocol as per manufacturer's recommendations. In brief; anti-cAMP cryptate (donor fluorophore) and cAMP-d2 (acceptor fluorophore) are made up separately by diluting each 1/20 in conjugate & lysis buffer provided in the kit. 5 μL anti-cAMP cryptate is added to all wells of the assay plate, and 5 μL cAMP-d2 is added to all wells except non-specific binding (NSB) wells, to which conjugate and lysis buffer are added. Plates are incubated at room temperature for one hour and then read on an Envision (Perkin Elmer) using excitation wavelength of 320 nm and emission wavelengths of 620 nm & 665 nm. EC50 values of the synthetic peptides determined in cAMP assays are then determined.

hGLP-1R = target: T2, hGLP-1R (Homo sapiens, UniProt P43220); assay: cAMP functional assay, cells expressing human GLP-1 receptor (primary assay); format: cell-based; details: n = 2
T2 construct: expressed in transfected cells
T2 sequence (P43220 24-463): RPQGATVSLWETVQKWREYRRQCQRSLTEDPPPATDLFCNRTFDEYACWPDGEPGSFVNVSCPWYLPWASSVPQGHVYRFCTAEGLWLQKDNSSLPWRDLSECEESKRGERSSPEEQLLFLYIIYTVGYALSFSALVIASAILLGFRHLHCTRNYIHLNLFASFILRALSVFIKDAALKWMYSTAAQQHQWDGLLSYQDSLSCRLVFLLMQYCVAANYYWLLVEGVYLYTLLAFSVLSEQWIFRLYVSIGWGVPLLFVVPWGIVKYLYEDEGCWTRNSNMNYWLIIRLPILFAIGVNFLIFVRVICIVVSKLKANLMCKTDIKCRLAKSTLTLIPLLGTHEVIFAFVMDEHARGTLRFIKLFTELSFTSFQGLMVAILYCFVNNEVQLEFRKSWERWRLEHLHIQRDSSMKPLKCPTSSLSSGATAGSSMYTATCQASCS
Experimental: as §1, §2, §3, §4, §5, §6

## CC[C@H](C)[C@H](NC(=O)[C@H](Cc1ccccc1)NC(=O)[C@H](CCC(=O)O)NC(=O)[C@H](CCCCN)NC(=O)[C@H](C)NC(=O)[C@H](C)NC(=O)[C@H](CCC(N)=O)NC(=O)CNC(=O)[C@H](CCC(=O)O)NC(=O)[C@H](CC(C)C)NC(=O)[C@](C)(Cc1ccccc1)NC(=O)[C@H](CO)NC(=O)[C@H](CO)NC(=O)[C@@H](NC(=O)[C@H](CC(=O)O)NC(=O)[C@H](CO)NC(=O)[C@@H](NC(=O)[C@](C)(Cc1ccccc1)NC(=O)[C@@H](NC(=O)CNC(=O)[C@H](CCC(=O)O)NC(=O)C(C)(C)NC(=O)[C@@H](N)Cc1c[nH]cn1)[C@@H](C)O)[C@@H](C)O)C(C)C)C(=O)N[C@@H](C)C(=O)N[C@@](C)(Cc1ccccc1)C(=O)N[C@@H](CC(C)C)C(=O)N[C@H](C(=O)N[C@@H](CCCCN)C(=O)NCC(=O)N[C@@H](CCCNC(=N)N)C(N)=O)C(C)C [SEQ ID NO: 30, H-(Aib)^2-EGT^5-(α-MeF)^6-TSDV^10 SS-(α-MeF)^13-LE^15 GQAAK^20 EF^22-IA-(α-MeF)^25 LVKGR^30] (H-H[Aib]EGT[αMeF]TSDVSS[αMeF]LEGQAAKEFIA[αMeF]LVKGR-NH2)
hGIP-R
  EC50: 98.9 nM
hGLP-1R
  EC50: 0.0117 nM

## CC[C@H](C)[C@H](NC(=O)[C@](C)(Cc1ccccc1)NC(=O)[C@H](CCC(=O)O)NC(=O)[C@H](CCCCN)NC(=O)[C@H](C)NC(=O)[C@H](C)NC(=O)[C@H](CCC(N)=O)NC(=O)CNC(=O)[C@H](CCC(=O)O)NC(=O)[C@H](CC(C)C)NC(=O)[C@H](Cc1ccc(O)cc1)NC(=O)[C@H](CO)NC(=O)[C@H](CO)NC(=O)[C@@H](NC(=O)[C@H](CC(=O)O)NC(=O)[C@H](CO)NC(=O)[C@@H](NC(=O)[C@](C)(Cc1ccccc1)NC(=O)[C@@H](NC(=O)CNC(=O)[C@H](CCC(=O)O)NC(=O)C(C)(C)NC(=O)[C@@H](N)Cc1c[nH]cn1)[C@@H](C)O)[C@@H](C)O)C(C)C)C(=O)N[C@@H](C)C(=O)N[C@@](C)(Cc1ccccc1)C(=O)N[C@@H](CC(C)C)C(=O)N[C@H](C(=O)N[C@@H](CCCCN)C(=O)NCC(=O)N[C@@H](CCCNC(=N)N)C(N)=O)C(C)C [SEQ ID NO: 31, H-(Aib)^2-EGT^5-(α-MeF)^6-TSDV^10 SSYLE^15 GQAAK^20 E-(α-MeF)^22-IA-(α-MeF)^25 LVKGR^30]
hGIP-R
  EC50: 102 nM
hGLP-1R
  EC50: 0.0155 nM

## CC[C@H](C)[C@H](NC(=O)[C@](C)(Cc1ccccc1)NC(=O)[C@H](CCC(=O)O)NC(=O)[C@H](CCCCN)NC(=O)[C@H](C)NC(=O)[C@H](C)NC(=O)[C@H](CCC(N)=O)NC(=O)CNC(=O)[C@H](CCC(=O)O)NC(=O)[C@H](CC(C)C)NC(=O)[C@](C)(Cc1ccccc1)NC(=O)[C@H](CO)NC(=O)[C@H](CO)NC(=O)[C@@H](NC(=O)[C@H](CC(=O)O)NC(=O)[C@H](CO)NC(=O)[C@@H](NC(=O)[C@H](Cc1ccccc1)NC(=O)[C@@H](NC(=O)CNC(=O)[C@H](CCC(=O)O)NC(=O)C(C)(C)NC(=O)[C@@H](N)Cc1c[nH]cn1)[C@@H](C)O)[C@@H](C)O)C(C)C)C(=O)N[C@@H](C)C(=O)N[C@@](C)(Cc1ccccc1)C(=O)N[C@@H](CC(C)C)C(=O)N[C@H](C(=O)N[C@@H](CCCCN)C(=O)NCC(=O)N[C@@H](CCCNC(=N)N)C(N)=O)C(C)C [SEQ ID NO: 32, H-(Aib)^2-EGT^5-FTSDV^10 SS-(α-MeF)^13-LE^15 GQAAK^20 E-(α-MeF)^22-IA-(α-MeF)^25 LVKGR^30] (H-H[Aib]EGTFTSDVSS[αMeF]LEGQAAKE[αMeF]IA[αMeF]LVKGR-NH2)
hGIP-R
  EC50: 102 nM
hGLP-1R
  EC50: 0.102 nM

## CC[C@H](C)[C@H](NC(=O)[C@H](Cc1ccccc1)NC(=O)[C@H](CCC(=O)O)NC(=O)[C@H](CCCCN)NC(=O)[C@H](C)NC(=O)[C@H](C)NC(=O)[C@H](CCC(N)=O)NC(=O)CNC(=O)[C@H](CCC(=O)O)NC(=O)[C@H](CC(C)C)NC(=O)[C@H](Cc1ccccc1)NC(=O)[C@H](CO)NC(=O)[C@H](CO)NC(=O)[C@@H](NC(=O)[C@H](CC(=O)O)NC(=O)[C@H](CO)NC(=O)[C@@H](NC(=O)[C@H](Cc1ccccc1)NC(=O)[C@H](CO)NC(=O)CNC(=O)[C@H](CCC(=O)O)NC(=O)C(C)(C)NC(=O)[C@@H](N)Cc1c[nH]cn1)[C@@H](C)O)C(C)C)C(=O)N[C@@H](C)C(=O)N[C@@H](Cc1ccccc1)C(=O)N[C@@H](CC(C)C)C(=O)N[C@H](C(=O)N[C@@H](CCCCN)C(=O)NCC(=O)N[C@@H](CCCNC(=N)N)C(N)=O)C(C)C [SEQ ID NO: 33, H-(Aib)^2-EG-(S)^5-FTSDV^10 SS-(F)^13-LE^15 GQAAK^20 EFIA-(F)^25 LVKGR^30] (H-H[Aib]EGSFTSDVSSFLEGQAAKEFIAFLVKGR-NH2)
hGIP-R
  EC50: 102 nM
hGLP-1R
  EC50: 0.0183 nM

## CC[C@H](C)[C@H](NC(=O)[C@](C)(Cc1ccccc1)NC(=O)[C@H](CCC(=O)O)NC(=O)[C@H](CCCCN)NC(=O)[C@H](C)NC(=O)[C@H](C)NC(=O)[C@H](CCC(N)=O)NC(=O)CNC(=O)[C@H](CCC(=O)O)NC(=O)[C@H](CC(C)C)NC(=O)[C@](C)(Cc1ccccc1)NC(=O)[C@H](CO)NC(=O)[C@H](CO)NC(=O)[C@@H](NC(=O)[C@H](CC(=O)O)NC(=O)[C@H](CO)NC(=O)[C@@H](NC(=O)[C@](C)(Cc1ccccc1)NC(=O)[C@H](CO)NC(=O)CNC(=O)[C@H](CCC(=O)O)NC(=O)C(C)(C)NC(=O)[C@@H](N)Cc1c[nH]cn1)[C@@H](C)O)C(C)C)C(=O)N[C@@H](C)C(=O)N[C@@H](Cc1c[nH]c2ccccc12)C(=O)N[C@@H](CC(C)C)C(=O)N[C@H](C(=O)N[C@@H](CCCCN)C(=O)NCC(=O)N[C@@H](CCCNC(=N)N)C(N)=O)C(C)C [SEQ ID NO: 34, H-(Aib)^2-EG-(S)^5-(α-MeF)^6-TSDV^10 SS-(α-MeF)^13-LE^15 GQAAK^20 E-(α-MeF)^22-IAW^25 LVKGR^30] (H-H[Aib]EGS[αMeF]TSDVSS[αMeF]LEGQAAKE[αMeF]IAWLVKGR-NH2)
hGIP-R
  EC50: 102 nM
hGLP-1R
  EC50: 0.0225 nM

## CC[C@H](C)[C@H](NC(=O)[C@H](Cc1ccccc1)NC(=O)[C@H](CCC(=O)O)NC(=O)[C@H](CCCCN)NC(=O)[C@H](C)NC(=O)[C@H](C)NC(=O)[C@H](CCC(N)=O)NC(=O)CNC(=O)[C@H](CCC(=O)O)NC(=O)[C@H](CC(C)C)NC(=O)[C@](C)(Cc1ccccc1)NC(=O)[C@H](CO)NC(=O)[C@H](CO)NC(=O)[C@@H](NC(=O)[C@H](CC(=O)O)NC(=O)[C@H](CO)NC(=O)[C@@H](NC(=O)[C@](C)(Cc1ccccc1)NC(=O)[C@H](CO)NC(=O)CNC(=O)[C@H](CCC(=O)O)NC(=O)C(C)(C)NC(=O)[C@@H](N)Cc1c[nH]cn1)[C@@H](C)O)C(C)C)C(=O)N[C@@H](C)C(=O)N[C@@](C)(Cc1ccccc1)C(=O)N[C@@H](CC(C)C)C(=O)N[C@H](C(=O)N[C@@H](CCCCN)C(=O)NCC(=O)N[C@@H](CCCNC(=N)N)C(N)=O)C(C)C [SEQ ID NO: 35, H-(Aib)^2-EG-(S)^5-(α-MeF)^6-TSDV^10 SS-(α-MeF)^13-LE^15 GQAAK^20 EFIA-(α-MeF)^25 LVKGR^30] (H-H[Aib]EGS[αMeF]TSDVSS[αMeF]LEGQAAKEFIA[αMeF]LVKGR-NH2)
hGIP-R
  EC50: 102 nM
hGLP-1R
  EC50: 0.0201 nM

## CC[C@H](C)[C@H](NC(=O)[C@](C)(Cc1ccccc1)NC(=O)[C@H](CCC(=O)O)NC(=O)[C@H](CCCCN)NC(=O)[C@H](C)NC(=O)[C@H](C)NC(=O)[C@H](CCC(N)=O)NC(=O)CNC(=O)[C@H](CCC(=O)O)NC(=O)[C@H](CC(C)C)NC(=O)[C@H](Cc1ccc(O)cc1)NC(=O)[C@H](CO)NC(=O)[C@H](CO)NC(=O)[C@@H](NC(=O)[C@H](CC(=O)O)NC(=O)[C@H](CO)NC(=O)[C@@H](NC(=O)[C@](C)(Cc1ccccc1)NC(=O)[C@H](CO)NC(=O)CNC(=O)[C@H](CCC(=O)O)NC(=O)C(C)(C)NC(=O)[C@@H](N)Cc1c[nH]cn1)[C@@H](C)O)C(C)C)C(=O)N[C@@H](C)C(=O)N[C@@](C)(Cc1ccccc1)C(=O)N[C@@H](CC(C)C)C(=O)N[C@H](C(=O)N[C@@H](CCCCN)C(=O)NCC(=O)N[C@@H](CCCNC(=N)N)C(N)=O)C(C)C [SEQ ID NO: 36, H-(Aib)^2-EG-(S)^5-(α-MeF)^6-TSDV^10 SSYLE^15 GQAAK^20 E-(α-MeF)^22-IA-(α-MeF)^25 LVKGR^30] (H-H[Aib]EGS[αMeF]TSDVSSYLEGQAAKE[αMeF]IA[αMeF]LVKGR-NH2)
hGIP-R
  EC50: 102 nM
hGLP-1R
  EC50: 0.0267 nM
